In ChEMBL document CHEMBL4507261, “Data for DCP probe A-192621” (2021) one finds IC50 and inhibition data, which are given here for one compound.

The target of test [1] is T1, Endothelin-1 receptor (Homo sapiens, UniProt P25101).
T1 sequence (P25101 whole entry): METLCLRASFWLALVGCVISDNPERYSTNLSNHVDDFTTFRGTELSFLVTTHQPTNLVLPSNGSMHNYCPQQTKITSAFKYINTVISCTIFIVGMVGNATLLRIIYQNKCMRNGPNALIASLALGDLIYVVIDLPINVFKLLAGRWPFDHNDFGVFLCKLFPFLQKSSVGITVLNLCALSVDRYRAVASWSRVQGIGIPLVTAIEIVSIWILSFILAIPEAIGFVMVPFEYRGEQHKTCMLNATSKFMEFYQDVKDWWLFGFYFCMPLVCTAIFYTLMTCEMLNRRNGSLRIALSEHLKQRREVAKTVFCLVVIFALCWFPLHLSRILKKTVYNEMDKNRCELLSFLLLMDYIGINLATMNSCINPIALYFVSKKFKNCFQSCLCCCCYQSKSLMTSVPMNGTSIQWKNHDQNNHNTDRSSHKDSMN
The test can be described thus: EDNRA- dependent phosphatidylinositol hydrolysis assay. The format is functional.

Test [2] deals with 5-hydroxytryptamine receptor 5A (Homo sapiens) (UniProt P47898). The settings on record: Compound concentration 10.0 uM.
Chain of 5-hydroxytryptamine receptor 5A (Homo sapiens) (P47898 whole entry): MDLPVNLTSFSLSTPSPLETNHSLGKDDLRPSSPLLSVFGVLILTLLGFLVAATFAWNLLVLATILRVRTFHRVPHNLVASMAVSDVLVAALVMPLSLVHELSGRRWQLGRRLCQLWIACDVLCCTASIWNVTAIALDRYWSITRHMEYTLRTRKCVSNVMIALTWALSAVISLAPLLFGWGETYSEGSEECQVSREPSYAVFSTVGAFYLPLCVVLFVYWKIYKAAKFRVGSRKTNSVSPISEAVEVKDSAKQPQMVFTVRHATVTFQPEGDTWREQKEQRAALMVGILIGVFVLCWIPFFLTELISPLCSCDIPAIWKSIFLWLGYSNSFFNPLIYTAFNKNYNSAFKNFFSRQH
For test [3], the target named is 5-hydroxytryptamine receptor 7 (Homo sapiens) (UniProt P34969). The settings on record: Compound concentration 10.0 uM.
Chain of 5-hydroxytryptamine receptor 7 (Homo sapiens) (P34969 whole entry): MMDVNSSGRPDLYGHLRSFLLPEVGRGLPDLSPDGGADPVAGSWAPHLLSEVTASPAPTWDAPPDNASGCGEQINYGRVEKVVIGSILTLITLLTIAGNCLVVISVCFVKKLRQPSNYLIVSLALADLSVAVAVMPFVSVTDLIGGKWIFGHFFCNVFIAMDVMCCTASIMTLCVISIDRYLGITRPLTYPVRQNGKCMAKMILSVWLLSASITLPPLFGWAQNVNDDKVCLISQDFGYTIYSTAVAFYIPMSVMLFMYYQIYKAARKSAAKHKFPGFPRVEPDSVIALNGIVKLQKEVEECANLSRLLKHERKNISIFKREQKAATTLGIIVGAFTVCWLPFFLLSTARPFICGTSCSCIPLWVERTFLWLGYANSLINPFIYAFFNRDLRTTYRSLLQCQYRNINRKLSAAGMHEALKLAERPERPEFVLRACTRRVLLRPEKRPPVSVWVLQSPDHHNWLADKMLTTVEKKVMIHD
For test [4], the target named is D(1A) dopamine receptor (Homo sapiens) (UniProt P21728). The settings on record: Compound concentration 10.0 uM.
Chain of D(1A) dopamine receptor (Homo sapiens) (P21728 whole entry): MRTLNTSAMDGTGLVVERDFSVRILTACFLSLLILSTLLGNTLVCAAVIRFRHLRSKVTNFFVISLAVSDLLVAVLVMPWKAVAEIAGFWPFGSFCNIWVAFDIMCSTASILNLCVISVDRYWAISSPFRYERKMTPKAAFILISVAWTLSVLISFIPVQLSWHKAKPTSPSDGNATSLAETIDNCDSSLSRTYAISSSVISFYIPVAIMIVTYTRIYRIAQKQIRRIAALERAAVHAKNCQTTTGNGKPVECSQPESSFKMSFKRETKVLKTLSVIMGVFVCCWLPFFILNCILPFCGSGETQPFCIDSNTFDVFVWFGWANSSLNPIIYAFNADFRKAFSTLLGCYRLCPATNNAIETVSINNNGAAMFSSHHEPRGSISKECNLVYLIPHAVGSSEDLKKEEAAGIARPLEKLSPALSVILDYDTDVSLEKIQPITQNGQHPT
For test [5], the target named is Kappa-type opioid receptor (Homo sapiens) (UniProt P41145). The conditions noted are these: Compound concentration 10.0 uM.
Chain of Kappa-type opioid receptor (Homo sapiens) (P41145 whole entry): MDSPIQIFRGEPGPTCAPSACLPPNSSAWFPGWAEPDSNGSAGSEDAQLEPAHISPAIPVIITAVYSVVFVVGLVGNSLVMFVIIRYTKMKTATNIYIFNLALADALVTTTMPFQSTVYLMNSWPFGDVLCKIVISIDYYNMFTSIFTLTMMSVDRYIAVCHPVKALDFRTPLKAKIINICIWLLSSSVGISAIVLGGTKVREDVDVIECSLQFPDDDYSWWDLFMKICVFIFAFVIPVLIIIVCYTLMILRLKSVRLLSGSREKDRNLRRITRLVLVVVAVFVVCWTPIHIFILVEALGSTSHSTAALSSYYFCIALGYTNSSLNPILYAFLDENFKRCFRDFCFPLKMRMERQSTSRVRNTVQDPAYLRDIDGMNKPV
The target of test [6] is T2, Muscarinic acetylcholine receptor M4 (Homo sapiens) (UniProt P08173).
T2 sequence (whole entry): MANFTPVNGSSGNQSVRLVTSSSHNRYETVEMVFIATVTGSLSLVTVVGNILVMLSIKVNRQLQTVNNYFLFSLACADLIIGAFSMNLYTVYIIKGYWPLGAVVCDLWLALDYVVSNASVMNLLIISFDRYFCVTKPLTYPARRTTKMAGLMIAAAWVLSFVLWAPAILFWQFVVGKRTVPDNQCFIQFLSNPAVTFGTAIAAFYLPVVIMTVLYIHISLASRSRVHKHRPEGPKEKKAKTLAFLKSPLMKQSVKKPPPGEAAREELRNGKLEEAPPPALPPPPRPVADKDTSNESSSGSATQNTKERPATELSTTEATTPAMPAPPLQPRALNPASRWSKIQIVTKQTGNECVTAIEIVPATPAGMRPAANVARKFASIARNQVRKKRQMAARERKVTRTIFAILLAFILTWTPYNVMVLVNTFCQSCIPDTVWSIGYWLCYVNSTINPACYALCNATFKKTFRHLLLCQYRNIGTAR
The settings on record: Compound concentration 10.0 uM.

Test [7] addresses Sigma intracellular receptor 2 (Homo sapiens) (UniProt Q5BJF2). The settings on record: Compound concentration 10.0 uM.

The IC50 is the concentration at which inhibition is half-maximal. A high value points to a need for much substance. The term inhibition denotes the drop in the measured response relative to a control, in per cent.

Some results are limits rather than exact numbers.

Chain of Sigma intracellular receptor 2 (Homo sapiens) (Q5BJF2 whole entry): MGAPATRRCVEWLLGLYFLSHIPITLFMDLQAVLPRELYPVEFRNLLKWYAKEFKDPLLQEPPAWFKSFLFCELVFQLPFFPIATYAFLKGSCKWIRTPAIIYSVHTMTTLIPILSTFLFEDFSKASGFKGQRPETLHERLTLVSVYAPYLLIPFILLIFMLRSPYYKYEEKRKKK

In the case of `CCCOc1ccc([C@H]2[C@H](C(=O)O)[C@@H](c3ccc4c(c3)OCO4)CN2CC(=O)Nc2c(CC)cccc2CC)cc1` [A-192621], in test [1], the half-inhibitory concentration (IC50) was > 1000 nM (not active). Further, the inhibition in test [2] is -0.22%; in test [3] it was -3.72%; in test [4], 17.3%; in test [5] it was 35.3%; in test [6] it was 12.5%; in test [7], -7.1%.
